Literature values as cited in publication PMC3082041 (Cancer Chemotherapy and Pharmacology, 2010).

System: patients
Details: treated with Imatinib; cited from earlier work

In the case of Cc1ccc(NC(=O)c2ccc(CN3CCN(C)CC3)cc2)cc1Nc1nccc(-c2cccnc2)n1 [Imatinib], the “patients with grade 3/4 edema” value is given as 7%.
